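Growth conditions: 96-well plates. Treatment: test compound, 48 hours, 5 concentrations. Analysis: linear interpolation between bracketing concentrations; unreached endpoints set to highest concentration. The concentration for full growth arrest is given as TGI.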
Legend:
Test in all cases: NCI tumour cell line growth inhibition, 48 h
OVCAR-4 ovarian = tested on: OVCAR-4 ovarian
MDA-MB-231 breast = tested on: MDA-MB-231 breast
MDA-N = tested on: MDA-N
NCI-H522 lung = tested on: NCI-H522 lung
SNB-75 CNS = tested on: SNB-75 CNS
NCI-H460 lung = tested on: NCI-H460 lung
SNB-19 CNS = tested on: SNB-19 CNS
DU-145 prostate = tested on: DU-145 prostate
UACC-257 melanoma = tested on: UACC-257 melanoma
UO-31 renal = tested on: UO-31 renal
M14 melanoma = tested on: M14 melanoma
MOLT-4 leukemia = tested on: MOLT-4 leukemia
SN12C renal = tested on: SN12C renal
EKVX NSCLC = tested on: EKVX NSCLC
SK-MEL-28 melanoma = tested on: SK-MEL-28 melanoma
HL-60(TB) leukemia = tested on: HL-60(TB) leukemia
HCT-116 colon = tested on: HCT-116 colon
COLO 205 colon = tested on: COLO 205 colon
A549 NSCLC = tested on: A549 NSCLC
RXF 393 renal = tested on: RXF 393 renal
U251 CNS = tested on: U251 CNS
HS 578T breast = tested on: HS 578T breast
RPMI-8226 leukemia = tested on: RPMI-8226 leukemia
MDA-MB-435 = tested on: MDA-MB-435
K-562 leukemia = tested on: K-562 leukemia
SF-295 CNS = tested on: SF-295 CNS
NCI/ADR-RES ovarian = tested on: NCI/ADR-RES ovarian
HCT-15 colon = tested on: HCT-15 colon
SW-620 colon = tested on: SW-620 colon
LOX IMVI melanoma = tested on: LOX IMVI melanoma
ACHN renal = tested on: ACHN renal
HOP-92 NSCLC = tested on: HOP-92 NSCLC
A498 renal = tested on: A498 renal
SK-MEL-2 melanoma = tested on: SK-MEL-2 melanoma
786-0 renal = tested on: 786-0 renal
TK-10 renal = tested on: TK-10 renal
HCC-2998 colon = tested on: HCC-2998 colon
KM12 colon = tested on: KM12 colon
CAKI-1 renal = tested on: CAKI-1 renal
OVCAR-5 ovarian = tested on: OVCAR-5 ovarian
PC-3 prostate = tested on: PC-3 prostate
SF-539 CNS = tested on: SF-539 CNS
HT29 colon = tested on: HT29 colon
IGROV1 ovarian = tested on: IGROV1 ovarian
MCF7 breast = tested on: MCF7 breast
UACC-62 melanoma = tested on: UACC-62 melanoma
OVCAR-3 ovarian = tested on: OVCAR-3 ovarian
CCRF-CEM leukemia = tested on: CCRF-CEM leukemia
SK-OV-3 ovarian = tested on: SK-OV-3 ovarian
T-47D breast = tested on: T-47D breast
OVCAR-8 ovarian = tested on: OVCAR-8 ovarian
NCI-H226 lung = tested on: NCI-H226 lung
SR leukemia = tested on: SR leukemia
HOP-62 NSCLC = tested on: HOP-62 NSCLC
SK-MEL-5 melanoma = tested on: SK-MEL-5 melanoma
SF-268 CNS = tested on: SF-268 CNS
NCI-H23 lung = tested on: NCI-H23 lung
BT-549 breast = tested on: BT-549 breast
MALME-3M melanoma = tested on: MALME-3M melanoma

## N#Cc1cc2cc3c4c(c2oc1=O)CCCN4CCC3
OVCAR-4 ovarian
  TGI: > 100 µM
MDA-MB-231 breast
  TGI: > 100 µM
MDA-N
  TGI: > 100 µM
NCI-H522 lung
  TGI: > 100 µM
SNB-75 CNS
  TGI: > 100 µM
NCI-H460 lung
  TGI: > 100 µM
SNB-19 CNS
  TGI: > 100 µM
DU-145 prostate
  TGI: > 100 µM
UACC-257 melanoma
  TGI: > 100 µM
UO-31 renal
  TGI: > 100 µM
M14 melanoma
  TGI: > 100 µM
MOLT-4 leukemia
  TGI: > 100 µM
SN12C renal
  TGI: > 100 µM
EKVX NSCLC
  TGI: > 100 µM
SK-MEL-28 melanoma
  TGI: > 100 µM
HL-60(TB) leukemia
  TGI: > 100 µM
HCT-116 colon
  TGI: > 100 µM
COLO 205 colon
  TGI: > 100 µM
A549 NSCLC
  TGI: > 100 µM
RXF 393 renal
  TGI: > 100 µM
U251 CNS
  TGI: > 100 µM
HS 578T breast
  TGI: > 100 µM
RPMI-8226 leukemia
  TGI: > 100 µM
MDA-MB-435
  TGI: > 100 µM
K-562 leukemia
  TGI: > 100 µM
SF-295 CNS
  TGI: > 100 µM
NCI/ADR-RES ovarian
  TGI: > 100 µM
HCT-15 colon
  TGI: > 100 µM
SW-620 colon
  TGI: > 100 µM
LOX IMVI melanoma
  TGI: > 100 µM
ACHN renal
  TGI: > 100 µM
HOP-92 NSCLC
  TGI: > 100 µM
A498 renal
  TGI: > 100 µM
SK-MEL-2 melanoma
  TGI: > 100 µM
786-0 renal
  TGI: > 100 µM
TK-10 renal
  TGI: > 100 µM
HCC-2998 colon
  TGI: > 100 µM
KM12 colon
  TGI: > 100 µM
CAKI-1 renal
  TGI: > 100 µM
OVCAR-5 ovarian
  TGI: > 100 µM
PC-3 prostate
  TGI: > 100 µM
SF-539 CNS
  TGI: > 100 µM
HT29 colon
  TGI: > 100 µM
IGROV1 ovarian
  TGI: > 100 µM
MCF7 breast
  TGI: > 100 µM
UACC-62 melanoma
  TGI: > 100 µM
OVCAR-3 ovarian
  TGI: > 100 µM
CCRF-CEM leukemia
  TGI: > 100 µM
SK-OV-3 ovarian
  TGI: > 100 µM
T-47D breast
  TGI: > 100 µM
OVCAR-8 ovarian
  TGI: > 100 µM
NCI-H226 lung
  TGI: > 100 µM
SR leukemia
  TGI: > 100 µM
HOP-62 NSCLC
  TGI: > 100 µM
SK-MEL-5 melanoma
  TGI: > 100 µM
SF-268 CNS
  TGI: > 100 µM
NCI-H23 lung
  TGI: > 100 µM
BT-549 breast
  TGI: > 100 µM

## COc1ccc(N2C(=O)C3c4[nH]c5ccccc5c4C4CCC(C(C)C)CC4C3C2=O)cc1 (stereo not given)
OVCAR-4 ovarian
  TGI: > 100 µM
MDA-MB-231 breast
  TGI: > 100 µM
MDA-N
  TGI: > 100 µM
NCI-H522 lung
  TGI: > 100 µM
SNB-75 CNS
  TGI: > 100 µM
NCI-H460 lung
  TGI: > 100 µM
SNB-19 CNS
  TGI: > 100 µM
DU-145 prostate
  TGI: > 100 µM
UACC-257 melanoma
  TGI: > 100 µM
UO-31 renal
  TGI: > 100 µM
M14 melanoma
  TGI: > 100 µM
MOLT-4 leukemia
  TGI: > 100 µM
SN12C renal
  TGI: > 100 µM
EKVX NSCLC
  TGI: > 100 µM
SK-MEL-28 melanoma
  TGI: > 100 µM
HCT-116 colon
  TGI: > 100 µM
COLO 205 colon
  TGI: > 100 µM
A549 NSCLC
  TGI: > 100 µM
U251 CNS
  TGI: > 100 µM
HS 578T breast
  TGI: > 100 µM
RPMI-8226 leukemia
  TGI: > 100 µM
MDA-MB-435
  TGI: > 100 µM
K-562 leukemia
  TGI: > 100 µM
SF-295 CNS
  TGI: > 100 µM
NCI/ADR-RES ovarian
  TGI: > 100 µM
HCT-15 colon
  TGI: > 100 µM
SW-620 colon
  TGI: > 100 µM
LOX IMVI melanoma
  TGI: > 100 µM
ACHN renal
  TGI: > 100 µM
HOP-92 NSCLC
  TGI: > 100 µM
A498 renal
  TGI: > 100 µM
SK-MEL-2 melanoma
  TGI: > 100 µM
786-0 renal
  TGI: > 100 µM
TK-10 renal
  TGI: > 100 µM
MALME-3M melanoma
  TGI: > 100 µM
HCC-2998 colon
  TGI: > 100 µM
KM12 colon
  TGI: > 100 µM
CAKI-1 renal
  TGI: > 100 µM
OVCAR-5 ovarian
  TGI: > 100 µM
PC-3 prostate
  TGI: > 100 µM
HT29 colon
  TGI: > 100 µM
IGROV1 ovarian
  TGI: > 100 µM
MCF7 breast
  TGI: > 100 µM
UACC-62 melanoma
  TGI: > 100 µM
OVCAR-3 ovarian
  TGI: > 100 µM
CCRF-CEM leukemia
  TGI: > 100 µM
SK-OV-3 ovarian
  TGI: > 100 µM
T-47D breast
  TGI: > 100 µM
OVCAR-8 ovarian
  TGI: > 100 µM
NCI-H226 lung
  TGI: > 100 µM
SR leukemia
  TGI: > 100 µM
HOP-62 NSCLC
  TGI: > 100 µM
SK-MEL-5 melanoma
  TGI: > 100 µM
SF-268 CNS
  TGI: > 100 µM
NCI-H23 lung
  TGI: > 100 µM
BT-549 breast
  TGI: > 100 µM

## Cc1ccc(O)c(Cc2nc3ccccc3nc2-c2cccc(Br)c2)c1
OVCAR-4 ovarian
  TGI: > 100 µM
MDA-MB-231 breast
  TGI: > 100 µM
MDA-N
  TGI: > 100 µM
NCI-H522 lung
  TGI: > 100 µM
SNB-75 CNS
  TGI: > 100 µM
NCI-H460 lung
  TGI: > 100 µM
SNB-19 CNS
  TGI: 69.7 µM
DU-145 prostate
  TGI: > 100 µM
UACC-257 melanoma
  TGI: > 100 µM
UO-31 renal
  TGI: > 100 µM
M14 melanoma
  TGI: > 100 µM
MOLT-4 leukemia
  TGI: 84.7 µM
SN12C renal
  TGI: > 100 µM
EKVX NSCLC
  TGI: > 100 µM
HL-60(TB) leukemia
  TGI: > 100 µM
HCT-116 colon
  TGI: > 100 µM
COLO 205 colon
  TGI: > 100 µM
A549 NSCLC
  TGI: > 100 µM
RXF 393 renal
  TGI: > 100 µM
U251 CNS
  TGI: > 100 µM
HS 578T breast
  TGI: 66.8 µM
RPMI-8226 leukemia
  TGI: > 100 µM
MDA-MB-435
  TGI: > 100 µM
K-562 leukemia
  TGI: > 100 µM
SF-295 CNS
  TGI: > 100 µM
NCI/ADR-RES ovarian
  TGI: > 100 µM
HCT-15 colon
  TGI: 66.9 µM
SW-620 colon
  TGI: > 100 µM
LOX IMVI melanoma
  TGI: > 100 µM
ACHN renal
  TGI: > 100 µM
HOP-92 NSCLC
  TGI: > 100 µM
SK-MEL-2 melanoma
  TGI: > 100 µM
786-0 renal
  TGI: > 100 µM
TK-10 renal
  TGI: > 100 µM
MALME-3M melanoma
  TGI: > 100 µM
KM12 colon
  TGI: > 100 µM
CAKI-1 renal
  TGI: > 100 µM
OVCAR-5 ovarian
  TGI: > 100 µM
PC-3 prostate
  TGI: > 100 µM
SF-539 CNS
  TGI: > 100 µM
HT29 colon
  TGI: > 100 µM
IGROV1 ovarian
  TGI: > 100 µM
MCF7 breast
  TGI: > 100 µM
UACC-62 melanoma
  TGI: > 100 µM
OVCAR-3 ovarian
  TGI: > 100 µM
CCRF-CEM leukemia
  TGI: > 100 µM
SK-OV-3 ovarian
  TGI: > 100 µM
T-47D breast
  TGI: > 100 µM
OVCAR-8 ovarian
  TGI: > 100 µM
NCI-H226 lung
  TGI: > 100 µM
SR leukemia
  TGI: > 100 µM
HOP-62 NSCLC
  TGI: > 100 µM
SK-MEL-5 melanoma
  TGI: > 100 µM
SF-268 CNS
  TGI: > 100 µM
NCI-H23 lung
  TGI: > 100 µM
BT-549 breast
  TGI: > 100 µM

— PubChem BioAssay (NCI)
